Test results: patent US20260259232A1, “A METHOD” (OWLSTONE MEDICAL LIMITED, priority 2022, published 2026)

Assay: Breath analysis by SIFT-MS before and after ingestion of 75 g glucose in healthy subjects
Assay type: in vivo, human
Conditions: for Cmax (maximum levels) in breath, interquartile range (IQR) / Cmax (maximum levels) in breath, median (M): breath sampled every 5 minutes for 90 minutes
[1] = 10 healthy subjects fasted overnight, after 75 grams of glucose in 300 ml of water

Experimental: A total of 10 healthy subjects were recruited and instructed to fast overnight and avoid drinking alcohol the day before the experiment. Breath was analysed using selected ion flow tube mass spectrometry (SIFT-MS). […] Afterwards, 75 grams of glucose dissolved in 300 ml of water were ingested, and 3 consecutive breath samples were provided every 5 minutes for 90 minutes. Measured compounds were expressed as part per billion volume/volume (PPB) and plotted as a function of time. Ambient samples were collected before and after the procedure.
The subjects were asked to fast overnight and not drink alcohol the day before the experiment.
A total of 75 g of glucose from Bulk (https://www.bulk.com/uk/dextrose.html?view=ppc&pid=2378&gclid=CjwKCAjw-vmkBhBMEiwAlrMeF2SOAMhqgNq65EV8YC2XWu63e4ByfJckgwv5jKZfzCA6BbIB24sLSBoC—kQAvD_BwE) was weighted in a glass and 300 ml of water was added and mixed until the full amount was dissolved. A total of 6 blank samples were collected and analysed before and after the procedure. The subjects provided breath samples before and every 5 minutes over 90 minutes after glucose ingestion. Each timepoint was represented by a 15 second breath exhalation consecutively repeated 3 times ed o and averaged for every timepoint. Breath samples were directly sampled for Selected-ion flow-tube mass spectrometry (SIFT-MS). Subjects exhaled into a single use Mouthpiece and Reservoir Tube (PO007257 Imspex) that were replaced for each timepoint collection.
Scans were performed in batch mode; data were collected in single ion mode (SIM). SIM scan was 50 secs long.

| SMILES | Tmax (time to maximum level) in breath, interquartile range (IQR) [1] [min] | Tmax (time to maximum level) in breath, median (M) [1] [min] | Cmax (maximum levels) in breath, interquartile range (IQR) [1] | Cmax (maximum levels) in breath, median (M) [1] [PPB] | Time for breath levels to return to baseline (after glucose administration, all investigated subjects) [min] | Return of breath levels to baseline (in words) (after glucose administration, investigated timeframe 90 minutes) |
| --- | --- | --- | --- | --- | --- | --- |
| CC(=O)C(C)O (centres unmarked) [acetoin] | 10 to 15 | 10 | 4-8.8 PPB | 7 | ≤ 50 |  |
| CCO [ethanol] |  |  | 303-593 PPB | 400 |  | returned to baseline at the end of the investigated timeframe for all but 1 subject |
